Laboratory results taken from ChEMBL document CHEMBL1137694, “Predicting anti-HIV activity of 1,3,4-thiazolidinone derivatives: 3D-QSAR approach” (Eur J Med Chem, 2009).

Test system: Human immunodeficiency virus
Assay: Antiviral activity against HIV assessed as reduction in virus-induced cytopathic effect by XTT assay
Type: functional, organism-based
Conditions: Human immunodeficiency virus 1, read-out: pEC50 (converted)

Compound `O=C1CSC(c2c(F)cccc2F)N1c1cccc(Br)n1` (configuration not stated) has an EC50 of 0.0299 µM.
`O=C1CSC(c2c(F)cccc2Cl)N1c1cccc(Br)n1` (configuration not stated) gave an EC50 of 0.0639 µM.
`COC1CCC1N1C(=O)CSC1c1c(F)cccc1F` (configuration not stated) was tested, and the EC50 was 0.0846 µM.
`Cc1cc(O)nc(N2C(=O)CSC2c2c(Cl)cccc2Cl)n1` (configuration not stated) was tested, and the EC50 was 0.0304 µM.
Work on `COc1cccc(F)c1C1SCC(=O)N1c1cc(Br)ccn1` (configuration not stated) yielded an EC50 of 0.0339 µM.
With `Cc1cccc(N2C(=S)CSC2c2c(Cl)cccc2Cl)n1` (configuration not stated) the EC50 was 0.0869 µM.
`CC1CCC1N1C(=O)CSC1c1c(Cl)cccc1Cl` (configuration not stated) showed an EC50 of 0.0798 µM.
With `Cc1cc(C)nc(N2C(=O)CSC2c2c(F)cccc2F)c1` (configuration not stated) the EC50 was 0.0589 µM.
For `COc1cccc(OC)c1C1SCC(=O)N1c1cc(C)ccn1` (configuration not stated), the EC50 was 0.0499 µM.
`Cc1ccnc(N2C(=O)CSC2c2c(Cl)cccc2Cl)n1` (configuration not stated) gave an EC50 of 0.0439 µM.
`Cc1cc(C)nc(N2C(=O)CSC2c2c(Cl)cccc2Cl)n1` (configuration not stated) gave an EC50 of 0.017 µM.
Work on `COc1cc(C)nc(N2C(=O)CSC2c2c(F)cccc2Cl)n1` (configuration not stated) yielded an EC50 of 0.0559 µM.
Work on `COc1cc(C)nc(N2C(=O)CSC2c2c(Cl)cccc2Cl)n1` (configuration not stated) yielded an EC50 of 0.0239 µM.
`COc1cccc(OC)c1C1SCC(=O)N1c1cc(Br)ccn1` (configuration not stated) gave an EC50 of 0.0449 µM.
Compound `O=C1CSC(c2c(F)cccc2F)N1c1cccnc1` (configuration not stated) has an EC50 of 0.0105 µM.
`Cc1cc(Cl)nc(N2C(=O)CSC2c2c(Cl)cccc2Cl)n1` (configuration not stated) was tested, and the EC50 was 0.0193 µM.
In the case of `Cc1cc(C)nc(N2C(=O)CSC2c2c(Cl)cccc2Cl)c1` (configuration not stated), the EC50 is reported as 0.0898 µM.
For `Cc1cccc(N2C(=O)CSC2c2c(F)cccc2F)n1` (configuration not stated), the EC50 was 0.0819 µM.
In the case of `Cc1cccc(N2C(=O)CSC2c2c(Cl)cccc2Cl)n1` (configuration not stated), the EC50 is reported as 0.0439 µM.
With `Cc1cc(C)nc(N2C(=O)CSC2c2c(F)cccc2Cl)n1` (configuration not stated) the EC50 was 0.0379 µM.
With `Cc1cccnc1N1C(=O)CSC1c1c(F)cccc1F` (configuration not stated) the EC50 was 0.0187 µM.
In the case of `CC1CC(C)C1N1C(=O)CSC1c1c(F)cccc1Cl` (configuration not stated), the EC50 is reported as 0.0857 µM.
